This note sets out measurements from patent publication US4876280A, “Arylcyclohexane and arylcyclohexene analogs of mevalonolactone derivatives and their use” (Sandoz Pharm. Corp., priority 1988, dated 1989).

The target in one test is T1, HMG-CoA reductase (Rattus norvegicus, UniProt P51639).
T1 construct: rat liver microsomal suspensions, freshly prepared from male Sprague-Dawley rats; from tissue; host or cells: liver microsomes of male Sprague-Dawley rats
T1 sequence (P51639 1-887): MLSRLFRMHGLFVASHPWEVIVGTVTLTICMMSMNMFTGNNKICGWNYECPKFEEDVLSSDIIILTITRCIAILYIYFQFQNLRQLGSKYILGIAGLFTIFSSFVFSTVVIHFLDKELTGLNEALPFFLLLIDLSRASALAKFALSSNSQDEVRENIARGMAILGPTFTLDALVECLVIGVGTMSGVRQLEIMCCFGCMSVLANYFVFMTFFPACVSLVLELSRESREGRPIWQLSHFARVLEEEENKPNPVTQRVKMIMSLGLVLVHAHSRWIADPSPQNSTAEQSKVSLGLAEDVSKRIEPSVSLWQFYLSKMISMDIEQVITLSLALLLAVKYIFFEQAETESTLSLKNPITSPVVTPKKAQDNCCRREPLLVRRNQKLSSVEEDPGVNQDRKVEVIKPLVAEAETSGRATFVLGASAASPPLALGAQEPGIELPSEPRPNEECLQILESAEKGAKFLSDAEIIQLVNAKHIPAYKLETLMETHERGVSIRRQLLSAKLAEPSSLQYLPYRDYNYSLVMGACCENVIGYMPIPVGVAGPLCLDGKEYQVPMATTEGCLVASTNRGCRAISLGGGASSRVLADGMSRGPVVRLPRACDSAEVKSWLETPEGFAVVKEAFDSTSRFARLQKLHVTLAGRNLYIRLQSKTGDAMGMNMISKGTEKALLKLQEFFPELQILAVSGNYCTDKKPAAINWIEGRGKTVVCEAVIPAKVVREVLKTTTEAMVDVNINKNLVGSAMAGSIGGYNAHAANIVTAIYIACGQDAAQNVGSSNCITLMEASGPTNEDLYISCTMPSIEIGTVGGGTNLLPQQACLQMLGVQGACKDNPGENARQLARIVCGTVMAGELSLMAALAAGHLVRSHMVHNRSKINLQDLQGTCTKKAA
As to the kind of experiment: Test A: In Vitro Microsomal Assay of HMG-CoA Reductase Inhibition. Format: biochemical. The following applies: rat liver microsomes, read-out: IC50 (50% inhibition of HMG-CoA reductase activity). The method, then:
Test A. In Vitro Microsomal Assay of HMG-CoA Reductase Inhibition:
200 μl. aliquots (1.08-1.50 mg./ml.) of rat liver microsomal suspensions, freshly prepared from male Sprague-Dawley rats (150-225 g. body weight), in Buffer A with 10 mmol. dithiothreitol are incubated with 10 μl. of a solution of the test substance dissolved in dimethylacetamide and assayed for HMG-CoA reductase activity as described by Ackerman et al., J. Lipid Res. 18, 408-413 (1977), the concentration of the test substance in the assay system being 0.01-2,000 μmolar. In the assay the microsomes are the source of the HMG-CoA reductase enzyme which catalyzes the reduction of HMG-CoA to mevalonate. The assay employs a chloroform extraction to separate the product, [^14 C]-mevalonolactone, formed by the HMG-CoA reductase reaction from the substrate, [^14 C]HMG-CoA. [^3 H]mevalonolactone is added as an internal reference. Inhibition of HMG-CoA reductase is calculated from the decrease in specific activity [^14 C/^3 H]mevalonate) of test groups compared to controls.
IC50 is the concentration of the test substance in the assay system observed or calculated to produce a 50% inhibition of HMG-CoA reductase activity (Test A) or sterol biosynthesis (Test B).

Test [1] has as its system 3β-hydroxysterol synthesis. As to the kind of experiment: Test C: In Vivo Cholesterol Biosynthesis Inhibition Test. The arrangement: species or system rat (male Wistar Royal Hart). The following applies: for ED50: Rattus norvegicus, read-out: ED50 (50% inhibition of 3β-hydroxysterol synthesis).
Method: Test C. In Vivo Cholesterol Biosynthesis Inhibition Test:
In vivo studies utilize male Wistar Royal Hart rats weighing 150±20 g. which have been kept for 7-10 days on an altered light cycle (6:30 A.M.-6.30 P.M. dark) housed two per cage and fed powdered Purina Rat Chow and water ad libitum. Three hours before the diurnal maximum of cholesterol synthesis at mid-dark, the rats are administered the test substances dissolved or as a suspension in 0.5% carboxymethylcellulose in a volume of 1 ml./100 g. body weight. Controls receive vehicle alone. One hour after receiving the test substance, the rats are injected intraperitoneally with about 25 μCi/100 g. body weight of sodium [1-^14 C]acetate 1-3 mCi/mmol. Two hours after mid-dark, blood samples are obtained under sodium hexobarbitol anesthesia, and the serum separated by centrifugation. (The dosage of the test substance is 0.01-200 mg./kg. body weight.)
The [^14 C]digitonides are then counted by liquid scintillation spectrometry. After correcting for efficiencies, the results are calculated in nCi (nanocuries) of sterol formed per 100 ml. of serum. Inhibition of sterol synthesis is calculated from the reduction in the nCi of sterols formed from test groups compared to controls.
The ED50 is the dose of the test substances observed or calculated to produce a 50% inhibition of 3β-hydroxysterol synthesis.
Test [2] concerns sterol biosynthesis in Fu5AH rat hepatoma cell line. As to the kind of experiment: Test B: In Vitro Cell Culture Cholesterol Biosynthesis Screen. The following applies: Fu5AH rat hepatoma cells, [14C]acetate, 3 hours, read-out: IC50 (50% inhibition of sterol biosynthesis). Format: cell-based. The method, then:
Test B. In Vitro Cell Culture Cholesterol Biosynthesis Screen:
The cell culture is prepared as follows: Stock monolayer cultures of the Fu5AH rat hepatoma cell line (originally obtained from G. Rothblat; see Rothblat, Lipids 9, 526-535 (1974) are routinely maintained in Eagle's Minimum Essential Medium (EMEM) supplemented with 10% fetal bovine serum (FBS) in 75 cm^2. tissue culture flasks. For these studies, when the cultures reach confluence, they are removed by mild enzymatic treatment with 0.25% trypsin in Hank's balanced salt solution (without calcium and magnesium). After centrifugation of the cell suspension and aspiration of the enzymatic solution, the cell pellet is resuspended in an appropriate volume of media for seeding into 60 mm. tissue culture dishes. The cultures are incubated at 37° C. in an atmosphere of high humidity and 5% carbon dioxide. When the cultures are confluent (approximately 5 days), they are ready for use. The culture media is aspirated from the dishes and replaced with 3 ml. of EMEM supplemented with 5 mg./ml. of delipidized serum protein (DLSP) prepared by the method of Rothblat et al., In Vitro 12, 554-447 (1976). […] Enhanced 3-hydroxy-3-methylglutaryl Coenzyme A reductase (HMG-CoA reductase) activity is measurable in the cells in response to the lack of exogenous sterol. Following approximately 24 hours incubation at 37° C. in the DLSP supplemented media, the assay is initiated by the addition of 3 μCi of [^14 C]acetate and the test substances solubilized in dimethylsulfoxide (DMSO) or distilled water. Solvent controls and compactin-treated controls are always prepared. Triplicate 60 mm. tissue culture dishes are run for each group. After 3 hours incubation at 37° C., the cultures are examined microscopically using an inverted phase contrast microscope. Notations are made of any morphological changes which may have occurred in the cultures. The media is aspirated and the cell layer is gently washed twice with 0.9% sodium chloride solution (saline). The cell layer is then harvested in 3 ml. of 0.9% saline by gentle scraping with a rubber policeman and transferred to a clean glass tube with Teflon lined cap. The dishes are rinsed with 3 ml. of 0.9% saline and rescraped, and the cells are combined with the first harvest. The tubes are centrifuged at 1500 r.p.m. for 10 minutes in an IEC PR-J centrifuge, and the supernatant is aspirated.
The cells are then extracted as follows: One ml. of 100% ethanol is added to the cell pellet followed by sonication for 10 seconds with a "LO" setting of 50 on a Bronwell Biosonik IV. One hundred μl. are taken for protein determination. One ml. of 15% potassium hydroxide (KOH) is added, and the samples are thoroughly vortexed. Saponification is accomplished by heating the ethanol-KOH treated samples at 60° C. for 60 minutes in a water bath. Following dilution of the samples with 2 ml. of distilled water, they are extracted three times with 7 ml. of petroleum ether. The petroleum ether extracts are then washed three times with 2 ml. of distilled water and finally taken to dryness under a stream of nitrogen.
The obtained samples are then analyzed by thin layer chromatography (TLC) as follows: Residues from the petroleum ether extraction are taken up in a small volume of hexane and spotted on silica gel 60 TLC plates (E. Merck). Development of the plates is carried out in a three phase solvent system consisting of 150 parts by volume hexane: 50 parts by volume diethyl ether: 5 parts by volume glacial acetic acid. Visualization is accomplished in an iodine vapor chamber. The plates are divided into five sections such that each section contains the molecules having the following approximate Rf value: section 1-0-0.4, section 12-0.4-0.55, section 3-0.55-0.7, section 4-0.7-0.9 and section 5-0.9-1.0. Section 2 contains the non-saponifiable sterols. The five sections of the TLC plates are scraped into scintillation vials. […]

Setting [3] is: Test C, male Wistar Royal Hart rats.

pIC50: −log10 of the molar value. Where two headings read alike, the source gives them in different places.

Turning to `CC[C@H](C)C(=O)O[C@H]1CCC=C2C=C[C@H](C)[C@H](CC[C@@H]3C[C@@H](O)CC(=O)O3)[C@H]21` [Compactin, reference compound], the results for the pIC50 (at HMG-CoA reductase; in test [2]) were 6.03 and 7.10, respectively. Further, the 50% effective dose (ED50) in test [1] (setting [3]) was determined as 3.5 mg/kg.

Consider `C[C@@H]1C=C[C@H](C)[C@H](c2ccc(F)cc2)[C@H]1/C=C/C1CC(O)CC(=O)O1` (stereo partly drawn) [Example 3, (E)-6-[2'-(2"α,5"α-Dimethyl-6"α-(4'"-fluorophenyl)cyclohex-3"-en-1"βS-yl)ethenyl]-4-hydroxy-3,4,5,6-tetrahydro-2H-pyran-2-one], for which the pIC50 was 5.09 on HMG-CoA reductase and 5.92 in test [2]. Besides, the ED50 in test [1] (setting [3]) came to 2.4 mg/kg.

On to `C[C@@H]1C=C[C@H](C)[C@H](c2ccc(F)cc2)[C@H]1/C=C/[C@@H]1C[C@@H](O)CC(=O)O1` [Example 3A, (E)-Trans-6S-[2'-(2"α,5"α-Dimethyl-6"α-(4'"-fluorophenyl)cyclohex-3"-en-1"βS-yl)ethenyl]-4R-hydroxy-3,4,5,6-tetrahydro-2H-pyran-2-one], for which the pIC50 at HMG-CoA reductase is 5.49.

As for `C[C@@H]1C=C[C@H](C)[C@H](c2ccc(F)cc2)[C@H]1/C=C/C(O)CC(O)CC(=O)O` (stereo partly drawn) [Example 5, Sodium (E)-3,5-dihydroxy-7-[2'α,5'α-dimethyl-6'α-(4"-fluorophenyl)cyclohex-3'-en-1'βS-yl]hept-6-enoate], the pIC50 on HMG-CoA reductase was 5.92; in test [2], 6.22. Further, the ED50 in test [1] (setting [3]) turned out to be 2.07 mg/kg.

In the case of `C[C@@H]1C=C[C@H](C)[C@H](c2ccc(F)cc2)[C@H]1/C=C/[C@@H](O)C[C@@H](O)CC(=O)O` [Example 5A, Sodium (E)-3R,5S-dihydroxy-7-[2'α,5'α-dimethyl-6'α-(4"-fluorophenyl)cyclohex-3'-en-1'βS-yl]hept-6-enoate], the pIC50 at HMG-CoA reductase is 6.27.

As for `CCOC(=O)CC(O)CC(O)/C=C/[C@@H]1[C@@H](c2cccc3ccccc23)[C@@H](C)C=C[C@H]1C` (stereo partly drawn) [Example 6, Ethyl (E)-3,5-dihydroxy-7-(2'α,5'α-dimethyl-6'α-naphth-1"-ylcyclohex-3'-en-1'βS-yl)hept-6-enoate], on HMG-CoA reductase, the pIC50 was 5.25.

Regarding `O=C1CC(O)CC(/C=C/[C@H]2CC=CC[C@@H]2c2ccccc2)O1` (stereo partly drawn) [Example 67B], at HMG-CoA reductase, the pIC50 was 2.86.

`O=C1CC(O)CC(/C=C/[C@@H]2CC=CC[C@H]2c2ccc(Cl)cc2)O1` (stereo partly drawn) [Example 73]: on HMG-CoA reductase, the pIC50 was 3.35.

Turning to `C[C@@H]1C=C[C@H](C)[C@@H](/C=C/C2CC(O)CC(=O)O2)[C@@H]1c1ccc(F)cc1` (stereo partly drawn) [Example 74], the pIC50 was 3.94 on HMG-CoA reductase and 5.24 in test [2]. Further, in test [1] (setting [3]), the ED50 worked out at 20 mg/kg.

For `C[C@@H]1C=C[C@H](C)[C@H](c2ccccc2)[C@H]1/C=C/C1CC(O)CC(=O)O1` (stereo partly drawn) [Example 79], the pIC50 on HMG-CoA reductase was 4.54; in test [2] it was 5.32. Moreover, in test [1] (Test C, male Wistar Royal Hart rats, at 5.9 mg./kg.), the “change in 3β-hydroxysterol synthesis” value is -62%.

Turning to `C[C@@H]1CC[C@H](C)[C@H](c2ccc(F)cc2)[C@H]1CCC(O)CC(O)CC(=O)O` (stereo partly drawn) [Example 85], the pIC50 on HMG-CoA reductase is 5.14.

`CCOC(=O)CC(O)CC(O)/C=C/[C@@H]1[C@@H](c2ccc(F)cc2)[C@H](C)CC[C@H]1C(C)C` (stereo partly drawn) [Example 86]: the negative logarithm of the IC50 (pIC50) at HMG-CoA reductase is 3.85; in test [2], 5.27.

Take `CC[C@H](C)C(=O)O[C@H]1C[C@@H](C)C=C2C=C[C@H](C)[C@H](CC[C@@H]3C[C@@H](O)CC(=O)O3)[C@H]21` [Mevinolin, reference compound]: the ED50 in test [1] came out at 0.41 mg/kg.
